The test system of the test is Lp-NOX. Briefly: NADH oxidation, absorbance at […] nm, Michaelis-Menten fit. The settings on record: free enzyme; 0.2 mM NADH, 0.025-0.2 mM flavin, 25 mM phosphate pH 7, 30 °C. It is filed as biochemical, Lactiplantibacillus pentosus.

Consider `Cc1cc2nc3c(=O)[nH]c(=O)nc-3n(C[C@H](O)[C@H](O)[C@H](O)COP(=O)(O)OP(=O)(O)OC[C@H]3O[C@@H](n4cnc5c(N)ncnc54)[C@H](O)[C@@H]3O)c2cc1C` [FAD], for which the Km is 41 ± 20 µM.

Turning to `Cc1cc2nc3c(=O)[nH]c(=O)nc-3n(C[C@H](O)[C@H](O)[C@H](O)COP(=O)(O)O)c2cc1C` [FMN], the Km is 215 ± 100 µM.
